Source: US8008329B2 (Dong Wha Pharmaceutical Co., Ltd., priority 2008, dated 2011)
Marks after values point to notes of the source that are not given here.

System: osteoclast differentiation
Test: Osteoclast differentiation in co-culture of mouse bone marrow cells and ST2 cells, TRAP staining (Examples 8-9)
Format: cell-based
Settings: for % number of osteoclast (vs. solvent control group): 0.1 μM each, day 7; for activity at 0.1 µM: Mus musculus, Osteoclast, 168 h, Individual treatment (compounds), day 7, read-out: % number of osteoclast (vs. solvent control group)
How it was run: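 Bone marrow cells from 6-8-week male ddY mice were co-cultured with ST2 stromal cells under 10^−8 M vitamin D3 and 10^−8 M dexamethasone, with compounds at 0.1 μM final (0.1% DMSO control), refreshed on days 3 and 5. On day 7, TRAP-positive osteoclasts with ≥6 nuclei were counted and expressed as % of solvent control (n=4).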

[1] = Combination treatment (alendronic acid + compounds)
[2] = Combination treatment (risedronic acid + compounds)

For Cc1nc(-c2ccc(OCCCCCOc3ccc(C(=N)NO)cc3)cc2)c(CNCc2ccccc2)s1 [Compound 306, N-hydroxy-4-(5-{4-[5-(benzylamino-methyl)-2-methyl-thiazol-4-yl]-phenoxy}-pentyloxy)-benzamidine], the “% number of osteoclast (vs. solvent control group)” value (“% number of osteoclast” for short) [1] was 18 ± 4.3^ab %, the “% number of osteoclast” value [2] was 16 ± 3.3^ac % and the activity at 0.1 µM was 48 ± 6.4%.

CCc1sc(N(CCO)CCO)nc1-c1ccc(OCCCCCOc2ccc(C(=N)NO)cc2)cc1 [Compound 139, N-hydroxy-4-[5-(4-{2-[bis-(2-hydroxyethyl)amino]-5-ethyl-1,3-thiazol-4-yl}phenoxy)pentyloxy]-benzamidine] was tested, and the “% number of osteoclast” value [1] was 49 ± 7.8%, the “% number of osteoclast” value [2] was 38 ± 6.9^ac % and the activity at 0.1 µM was 64 ± 4.6%.

With CCCCc1sc(NC)nc1-c1ccc(OCCCCCOc2ccc(C(=N)NO)cc2)cc1 [Compound 105, N-hydroxy-4-{5-[4-(5-butyl-2-methylamino-1,3-thiazol-4-yl)phenoxy]pentyloxy}-benzamidine] the “% number of osteoclast” value [1] was 42 ± 3.0^b %, the “% number of osteoclast” value [2] was 41 ± 8.8^ac % and the activity at 0.1 µM was 87 ± 11%.

C=Cc1sc(N)nc1-c1ccc(OCCCCCOc2ccc(C(=N)NO)cc2)cc1 [Compound 78, N-hydroxy-4-{5-[4-(5-vinyl-2-amino-1,3-thiazol-4-yl)phenoxy]pentyloxy}-benzamidine] was tested, and the “% number of osteoclast” value [1] was 36 ± 4.2^ab %, the “% number of osteoclast” value [2] was 20 ± 1.7^a % and the activity at 0.1 µM was 67 ± 2.1%.

With N=C(NO)c1ccc(OCCCCCOc2ccc(-c3nc(C4CCCCC4)sc3CCN(C(=O)c3cccnc3)C3CC3)cc2)cc1 [Compound 281, N-hydroxy-4-{5-[4-(2-cyclohexyl-5-{2-[cyclopropyl-(pyridin-3-carbonyl)-amino]-ethyl}-thiazol-4-yl)-phenoxy]-pentyloxy}-benzamidine] the “% number of osteoclast” value [1] was 22 ± 5.9^b %, the “% number of osteoclast” value [2] was 6 ± 2.5^ac % and the activity at 0.1 µM was 30 ± 7.6%.

For Cc1nc(-c2ccc(OCCCCCOc3ccc(C(=N)NO)cc3)cc2)c(Cn2ccnc2)s1 [Compound 305, N-hydroxy-4-{5-[4-(5-imidazol-1-ylmethyl-2-methyl-thiazol-4-yl)-phenoxy]-pentyloxy}-benzamidine], the “% number of osteoclast” value [1] was 15 ± 4.8^ab %, the “% number of osteoclast” value [2] was 11 ± 4.1^ac % and the activity at 0.1 µM was 58 ± 6.1%.

For C=Cc1sc(C)nc1-c1ccc(OCCCCCOc2ccc(C(=N)NO)cc2)cc1 [Compound 74, N-hydroxy-4-{5-[4-(5-vinyl-2-methyl-1,3-thiazole-4-yl)phenoxy]pentyloxy}-benzamidine], the “% number of osteoclast” value [1] was 36 ± 4.3^ab %, the “% number of osteoclast” value [2] was 28 ± 5.4^ac % and the activity at 0.1 µM was 60 ± 0.7%.

In the case of N=C(NO)c1ccc(OCCCCCOc2ccc(-c3nc(-c4cccnc4)sc3Cc3ccccc3)cc2)cc1 [Compound 41, N-hydroxy-4-{5-[4-(5-benzyl-2-pyridin-3-yl-1,3-thiazol-4-yl)phenoxy]pentyloxy}-benzamidine], the “% number of osteoclast” value [1] is reported as 29 ± 5.0^b %, the “% number of osteoclast” value [2] is reported as 31 ± 2.6^c % and the activity at 0.1 µM is reported as 31 ± 9.4%.

In the case of CCc1sc(N(C)Cc2ccccc2)nc1-c1ccc(OCCCCCOc2ccc(C(=N)NO)cc2)cc1 [Compound 133, N-hydroxy-4-[5-{4-[2-(benzyl-methyl-amino)-5-ethyl-1,3-thiazol-4-yl]phenoxy}pentyloxy]-benzamidine], the “% number of osteoclast” value [1] is reported as 42 ± 8.3^b %, the “% number of osteoclast” value [2] is reported as 25 ± 5.7^ac % and the activity at 0.1 µM is reported as 54 ± 8.3%.

For Cc1nc(-c2ccc(OCCCCCOc3ccc(C(=N)NO)cc3)cc2)c(CCNCCCn2ccnc2)s1 [Compound 218, N-hydroxy-4-[5-(4-{5-[2-(3-imidazol-1-yl-propylamino)-ethyl]-2-methyl-thiazol-4-yl}-phenoxy)-pentyloxy]-benzamidine], the “% number of osteoclast” value [1] was 39 ± 10.4^b %, the “% number of osteoclast” value [2] was 25 ± 7.5^ac % and the activity at 0.1 µM was 56 ± 1.9%.

For N=C(NO)c1ccc(OCCCCCOc2ccc(-c3csc(C4CCCCC4)n3)cc2)cc1 [Compound 8, N-hydroxy-4-{5-[4-(2-cyclohexyl-1,3-thiazol-4-yl)phenoxy]pentyloxy}-benzamidine], the “% number of osteoclast” value [1] was 22 ± 3.4^ab %, the “% number of osteoclast” value [2] was 27 ± 3.8^ac % and the activity at 0.1 µM was 65 ± 10.4%.

With Cc1nc(-c2ccc(OCc3ccc(COc4ccc(C(=N)NO)cc4)cc3)cc2)c(C(C)C)s1 [Compound 185, N-hydroxy-4-{4-[4-(5-isopropyl-2-methyl-1,3-thiazol-4-yl)-phenoxymethyl]-benzyloxy}-benzamidine] the “% number of osteoclast” value [1] was 57 ± 13.9%, the “% number of osteoclast” value [2] was 45 ± 1.4^ac % and the activity at 0.1 µM was 81 ± 7%.

COCc1sc(C)nc1-c1ccc(OCCCCCOc2ccc(C(=N)NO)cc2)cc1 [Compound 76, N-hydroxy-4-{5-[4-(5-methoxymethyl-2-methyl-1,3-thiazol-4-yl)phenoxy]pentyloxy}-benzamidine] was tested, and the “% number of osteoclast” value [1] was 31 ± 6.8^ab %, the “% number of osteoclast” value [2] was 22 ± 3.8^a % and the activity at 0.1 µM was 53 ± 6.5%.

For CCN(CC)c1nc(-c2ccc(OCCCCCOc3ccc(C(=N)NO)cc3)cc2)c(CCN2CCOCC2)s1 [Compound 270, N-hydroxy-4-(5-{4-[2-diethylamino-5-(2-morpholin-4-yl-ethyl)-thiazol-4-yl]-phenoxy}-pentyloxy)-benzamidine], the “% number of osteoclast” value [1] was 28 ± 4.5^b %, the “% number of osteoclast” value [2] was 14 ± 2.1^ac % and the activity at 0.1 µM was 45 ± 6.9%.

In the case of CCN(CCO)c1nc(-c2ccc(OCCCCCOc3ccc(C(=N)NO)cc3)cc2)c(C)s1 [Compound 121, N-hydroxy-4-[5-(4-{2-[ethyl-(2-hydroxyethyl) -amino]-5-methyl-1,3-thiazol-4-yl}phenoxy)pentyloxy]-benzamidine], the “% number of osteoclast” value [1] is reported as 55 ± 11.1^ab %, the “% number of osteoclast” value [2] is reported as 39 ± 5.7^ac % and the activity at 0.1 µM is reported as 95 ± 3.9%.

CCc1sc(N(C)Cc2cccnc2)nc1-c1ccc(OCCCCCOc2ccc(C(=N)NO)cc2)cc1 [Compound 134, N-hydroxy-4-[5-(4-{5-ethyl-2-[methyl-(pyridin-3-ylmethyl)amino]-1,3-thiazol-4-yl}phenoxy)pentyloxy]-benzamidine] was tested, and the “% number of osteoclast” value [1] was 39 ± 3.4^ab %, the “% number of osteoclast” value [2] was 24 ± 4.0^ac % and the activity at 0.1 µM was 57 ± 4.3%.

With CCc1sc(N(CC)CCN2CCOCC2)nc1-c1ccc(OCCCCCOc2ccc(C(=N)NO)cc2)cc1 [Compound 132, N-hydroxy-4-[5-(4-{5-ethyl-2-[ethyl-(2-morpholinoethyl)-amino]-1,3-thiazol-4-yl}phenoxy)pentyloxy]-benzamidine] the “% number of osteoclast” value [1] was 37 ± 8.3^ab %, the “% number of osteoclast” value [2] was 30 ± 3.4^ac % and the activity at 0.1 µM was 62 ± 7.7%.

Cc1nc(-c2ccc(OCCCCCOc3ccc(C(=N)NO)cc3)cc2)cs1 [Compound 3, N-hydroxy-4-{5-[4-(2-methyl-1,3-thiazol-4-yl)phenoxy]pentyloxy}-benzamidine] was tested, and the “% number of osteoclast” value [1] was 40 ± 4.6^b %, the “% number of osteoclast” value [2] was 33 ± 6.8^c % and the activity at 0.1 µM was 52 ± 8.9%.

With CCCCc1sc(N(C)CCN2CCOCC2)nc1-c1ccc(OCCCCCOc2ccc(C(=N)NO)cc2)cc1 [Compound 144, N-hydroxy-4-[5-(4-{5-butyl-2-[methyl-(2-morpholinoethyl)amino]-1,3-thiazol-4-yl}phenoxy)pentyloxy]-benzamidine] the “% number of osteoclast” value [1] was 44 ± 10.5^ab %, the “% number of osteoclast” value [2] was 37 ± 4.3^ac % and the activity at 0.1 µM was 82 ± 6.7%.

CCNc1nc(-c2ccc(OCCCCCOc3ccc(C(=N)NO)cc3)cc2)cs1 [Compound 84, N-hydroxy-4-{5-[4-(2-ethylamino-1,3-thiazol-4-yl)phenoxy]pentyloxy}-benzamidine] was tested, and the “% number of osteoclast” value [1] was 30 ± 5.1^ab %, the “% number of osteoclast” value [2] was 6 ± 4.4^ac % and the activity at 0.1 µM was 44 ± 4.3%.

For CNC(=O)c1sc(C)nc1-c1ccc(OCCCCCOc2ccc(C(=N)NO)cc2)cc1 [Compound 282, N-hydroxy-4-{5-[4-(5-methylcarbamoyl-2-methyl-thiazol-4-yl)-phenoxy]-pentyloxy}-benzamidine], the “% number of osteoclast” value [1] was 49 ± 9.9^ab %, the “% number of osteoclast” value [2] was 45 ± 5.2^ac % and the activity at 0.1 µM was 73 ± 7.1%.

In the case of CCCN1CCC(c2nc(-c3ccc(OCCCCCOc4ccc(C(=N)NO)cc4)cc3)c(C)s2)CC1 [Compound 72, N-hydroxy-4-{5-[4-(5-methyl-2-(1-propyl-piperidin-4-yl)-1,3-thiazol-4-yl)phenoxy]pentyloxy}-benzamidine], the “% number of osteoclast” value [1] is reported as 30 ± 4.0^ab %, the “% number of osteoclast” value [2] is reported as 12 ± 3.2^ac % and the activity at 0.1 µM is reported as 63 ± 1.1%.
